Data taken from US7138361B2, “Herbicidal heterocycles” (E. I. du Pont de Nemours and Company, priority 2000, dated 2006).

Assays:
Format in all cases: in vivo
Sunflower [1] = assay: Test C preemergence; conditions: Rate 250 g/ha, visual evaluation after 12 to 14 days
[2] = tested on: barnyardgrass (Echinochloa crus-galli); assay: Test C flooded paddy test; conditions: for Barnyardgrass plant response rating: Flooded Paddy, scale 0 to 100, 0 no effect, 100 complete control; for Plant response rating, Barnyardgrass / Plant response rating (scale 0 to 100), Barnyardgrass: flooded paddy test; for Plant response rating, Barnyardgrass: scale 0 to 100 (0 no effect, 100 complete control)
How it was run: (§1)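 Ratings come from visual comparison with control plants after 12 to 14 days in the greenhouse. Each species was at the 2-leaf stage when the flooded paddy was treated. Scores run from 0, meaning no effect, to 100, meaning complete control.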

[3] = tested on: duck salad (Heteranthera limosa); assay: Test C flooded paddy test; conditions: for Ducksalad plant response rating: Flooded Paddy, scale 0 to 100, 0 no effect, 100 complete control; for Plant response rating, Ducksalad / Plant response rating (scale 0 to 100), Ducksalad: flooded paddy test; for Plant response rating, Ducksalad: scale 0 to 100 (0 no effect, 100 complete control)
How it was run: as §1

[4] = tested on: smallflower flatsedge (Cyperus difformis); assay: Test C flooded paddy test; conditions: for Flatsedge plant response rating: Flooded Paddy, scale 0 to 100, 0 no effect, 100 complete control; for Plant response rating, Flatsedge / Plant response rating (scale 0 to 100), Flatsedge: flooded paddy test; for Plant response rating, Flatsedge: scale 0 to 100 (0 no effect, 100 complete control)
How it was run: as §1

[5] = tested on: goosegrass (Eleusine indica); assay: Test C preemergence
Description: (§2) Seeds of plant species selected from bermudagrass (Cynodon dactylon), Surinam grass (Brachiaria decumbens), cocklebur (Xanthium strumarium), corn (Zea mays), crabgrass (Digitaria sanguinalis), woolly cupgrass (Eriochloa villosa), giant foxtail (Setaria faberii), goosegrass (Eleusine indica), johnsongrass (Sorghum halepense), kochia (Kochia scoparia), lambsquarters (Chenopodium album), morningglory (Ipomoea hederacea), yellow nutsedge (Cyperus esculentus), pigweed (Amaranthus retroflexus), common ragweed (Ambrosia elatior), soybean (Glycine max) and velvetleaf (Abutilon theophrasti) were planted and treated preemergence with test chemicals formulated in a non-phytotoxic solvent mixture which included a surfactant.
(§3) At the same time, plants selected from these crop and weed species and also winter barley (Hordeum vulgare), blackgrass (Alopecurus myosuroides), canary grass (Phalaris minor), chickweed (Stellaria media), downy brome (Bromus tectorum), green foxtail (Setaria viridis), Italian ryegrass (Lolium multiflorum), wheat (Triticum aestivum), wild oat (Avena fatua) and windgrass (Apera spica-venti) were treated with postemergence applications of some of the test chemicals formulated in the same manner. Plants ranged in height from 2 to 18 cm (1- to 4-leaf stage) for postemergence treatments. Plant species in the flooded paddy test consisted of rice (Oryza saliva), smallflower flatsedge (Cyperus difformis), duck salad (Heteranthera limosa) and barnyardgrass (Echinochloa crus-galli) grown to the 2-leaf stage for testing. Treated plants and controls were maintained in a greenhouse for 12 to 14 days, after which time all species were compared to controls and visually evaluated. Plant response ratings, summarized in Table C, are based on a scale of 0 to 100 where 0 is no effect and 100 is complete control. A dash (-) response means no test result.

[6] = tested on: johnsongrass (Sorghum halepense); assay: Test C preemergence
Description: as §2, §3

Sunflower [7] = assay: Test C preemergence
Description: as §2, §3

[8] = tested on: pigweed (Amaranthus retroflexus); assay: Test C preemergence
Description: as §2, §3

[9] = tested on: velvetleaf (Abutilon theophrasti); assay: Test C preemergence
Description: as §2, §3

[10] = tested on: morningglory (Ipomoea hederacea); assay: Test C preemergence
Description: as §2, §3

[11] = tested on: lambsquarters (Chenopodium album); assay: Test C preemergence
Description: as §2, §3

[12] = tested on: woolly cupgrass (Eriochloa villosa); assay: Test C preemergence
Description: as §2, §3

[13] = tested on: yellow nutsedge (Cyperus esculentus); assay: Test C preemergence
Description: as §2, §3

corn (Zea mays) = assay: Test C preemergence
Description: as §2, §3

Nightshade = assay: Test C preemergence
Description: as §2, §3

soybean (Glycine max) = assay: Test C preemergence
Description: as §2, §3

[14] = tested on: cocklebur (Xanthium strumarium); assay: Test C preemergence
Description: as §2, §3

[15] = tested on: Surinam grass (Brachiaria decumbens); assay: Test C preemergence
Description: as §2, §3

[16] = tested on: crabgrass (Digitaria sanguinalis); assay: Test C preemergence
Description: as §2, §3

[17] = tested on: bermudagrass (Cynodon dactylon); assay: Test C preemergence
Description: as §2, §3

[18] = tested on: giant foxtail (Setaria faberii); assay: Test C preemergence
Description: as §2, §3

[19] = Rate 16 g/ha, visually evaluated after 12 to 14 days, 0 = no effect, 100 = complete control
[20] = under head Rate 16 g/ha, (own rate not given), after 12 to 14 days
[21] = Preemergence, Rate 500 g/ha, scale 0 to 100
[22] = Rate 62 g/ha, scale 0 to 100, 0 no effect, 100 complete control
[23] = preemergence, Rate 250 g/ha, visual evaluation after 12 to 14 days
[24] = preemergence, Rate 125 g/ha, scale 0 to 100, 0 no effect, 100 complete control

CC(C)(C)c1ccn(C2SCN(c3cccc(OC(F)(F)F)c3)C2=O)n1 (centres unmarked) [Compound 30]
Plant response rating (0 to 100), Sunflower (Sunflower [1]): 80
Barnyardgrass plant response rating ([2]; Rate 250 g/ha): 100
Barnyardgrass plant response rating ([2]; Rate 500 g/ha): 100
Plant response rating, Barnyardgrass ([2]; Rate 62 g/ha): 100
Plant response rating, Barnyardgrass ([2]; Rate 125 g/ha): 100
Plant response rating (scale 0 to 100), Barnyardgrass [2, 19]: 80
Plant response rating (scale 0 to 100), Barnyardgrass [2, 20]: 60
Ducksalad plant response rating ([3]; Rate 250 g/ha): 100
Ducksalad plant response rating ([3]; Rate 500 g/ha): 100
Plant response rating, Ducksalad ([3]; Rate 62 g/ha): 70
Plant response rating, Ducksalad ([3]; Rate 125 g/ha): 100
Plant response rating (scale 0 to 100), Ducksalad [3, 19]: 50
Plant response rating (scale 0 to 100), Ducksalad [3, 20]: 0
Flatsedge plant response rating ([4]; Rate 250 g/ha): 100
Flatsedge plant response rating ([4]; Rate 500 g/ha): 100
Plant response rating, Flatsedge ([4]; Rate 62 g/ha): 90
Plant response rating, Flatsedge ([4]; Rate 125 g/ha): 100
Plant response rating (scale 0 to 100), Flatsedge [4, 19]: 90
Plant response rating (scale 0 to 100), Flatsedge [4, 20]: 90
Plant response rating, Goosegrass [5, 21]: 100
Plant response rating, Goosegrass [5, 22]: 100
Plant response rating (0 to 100), Goosegrass [5, 23]: 100
Plant response rating, Goosegrass [5, 24]: 100
Plant response rating, Johnsongrass [6, 21]: 100
Plant response rating, Johnsongrass [6, 22]: 30
Plant response rating (0 to 100), Johnsongrass [6, 23]: 90
Plant response rating, Johnsongrass [6, 24]: 40
Plant response rating, Sunflower (Sunflower [7]; [22]): 0
Plant response rating, Sunflower (Sunflower [7]; Rate 500 g/ha, scale 0 to 100): 100
Plant response rating, Pigweed [8, 21]: 100
Plant response rating, Pigweed [8, 22]: 90
Plant response rating (0 to 100), Pigweed [8, 23]: 90
Plant response rating, Pigweed [8, 24]: 50
Plant response rating, Velvetleaf [9, 21]: 30
Plant response rating, Velvetleaf [9, 22]: 0
Plant response rating (0 to 100), Velvetleaf [9, 23]: 0
Plant response rating, Velvetleaf [9, 24]: 0
Plant response rating, Morningglory [10, 21]: 80
Plant response rating, Morningglory [10, 22]: 30
Plant response rating (0 to 100), Morningglory [10, 23]: 80
Plant response rating, Morningglory [10, 24]: 30
Plant response rating, Lambsquarters [11, 21]: 100
Plant response rating, Lambsquarters [11, 22]: 100
Plant response rating (0 to 100), Lambsquarters [11, 23]: 100
Plant response rating, Lambsquarters [11, 24]: 100
Plant response rating, Cupgrass, Woolly [12, 21]: 100
Plant response rating, Cupgrass, Woolly [12, 22]: 70
Plant response rating (0 to 100), Cupgrass, Woolly [12, 23]: 90
Plant response rating, Cupgrass, Woolly [12, 24]: 70
Plant response rating, Nutsedge [13, 21]: 40
Plant response rating, Nutsedge [13, 22]: 20
Plant response rating (0 to 100), Nutsedge [13, 23]: 40
Plant response rating, Corn (corn (Zea mays); [21]): 50
Plant response rating, Corn (corn (Zea mays); [22]): 30
Plant response rating (0 to 100), Corn (corn (Zea mays); [23]): 50
Plant response rating, Corn (corn (Zea mays); [24]): 40
Plant response rating, Nightshade (Nightshade; [22]): 80
Plant response rating, Nightshade (Nightshade; Rate 125 g/ha, scale 0 to 100, 0 no effect, 100 complete control): 90
Plant response rating, Nightshade (Nightshade; Rate 500 g/ha, scale 0 to 100): 100
Plant response rating, Soybean (soybean (Glycine max); [21]): 70
Plant response rating, Soybean (soybean (Glycine max); [22]): 30
Plant response rating (0 to 100), Soybean (soybean (Glycine max); [23]): 70
Plant response rating, Soybean (soybean (Glycine max); [24]): 70
Plant response rating, Cocklebur [14, 21]: 80
Plant response rating, Cocklebur [14, 22]: 0
Plant response rating (0 to 100), Cocklebur [14, 23]: 0
Plant response rating, Cocklebur [14, 24]: 0
Plant response rating, Surinam grass [15, 21]: 60
Plant response rating, Surinam grass [15, 22]: 20
Plant response rating (0 to 100), Surinam grass [15, 23]: 40
Plant response rating, Surinam grass [15, 24]: 40
Plant response rating, Crabgrass [16, 21]: 100
Plant response rating, Crabgrass [16, 22]: 100
Plant response rating (0 to 100), Crabgrass [16, 23]: 100
Plant response rating, Crabgrass [16, 24]: 100
Plant response rating, Bermudagrass [17, 21]: 100
Plant response rating, Bermudagrass [17, 22]: 100
Plant response rating (0 to 100 where 0 is no effect and 100 is complete control), Bermudagrass [17, 23]: 100
Plant response rating, Bermudagrass [17, 24]: 100
Plant response rating, Foxtail, Giant [18, 21]: 100
Plant response rating, Foxtail, Giant [18, 22]: 80
Plant response rating (0 to 100), Foxtail, Giant [18, 23]: 90
Plant response rating, Foxtail, Giant [18, 24]: 60
